Results on two molecules are retold here after PMC3661904 (Neuropharmacology, 2012).

Common to all, as to assay: aequorin intracellular calcium assay, inhibition of ACh response
What all share (format): cell-based

For assay [1], the target named is human α3β4α5D nAChR (D398 variant of α5; α3β4α5N carries N398) (Homo sapiens, UniProt P30532+P30926+P32297).
The target in assay [2] is human α3β4 nicotinic acetylcholine receptor (α3β4 nAChR) (Homo sapiens, UniProt P30926+P32297).
Assay [3] concerns the target human α3β4α5D nAChR (D398 variant of α5; α3β4α5N carries N398) (Homo sapiens, UniProt P30532+P30926+P32297, P30532:D398N).

human α3β4 nicotinic acetylcholine receptor (α3β4 nAChR), sequence (P32297 32-505): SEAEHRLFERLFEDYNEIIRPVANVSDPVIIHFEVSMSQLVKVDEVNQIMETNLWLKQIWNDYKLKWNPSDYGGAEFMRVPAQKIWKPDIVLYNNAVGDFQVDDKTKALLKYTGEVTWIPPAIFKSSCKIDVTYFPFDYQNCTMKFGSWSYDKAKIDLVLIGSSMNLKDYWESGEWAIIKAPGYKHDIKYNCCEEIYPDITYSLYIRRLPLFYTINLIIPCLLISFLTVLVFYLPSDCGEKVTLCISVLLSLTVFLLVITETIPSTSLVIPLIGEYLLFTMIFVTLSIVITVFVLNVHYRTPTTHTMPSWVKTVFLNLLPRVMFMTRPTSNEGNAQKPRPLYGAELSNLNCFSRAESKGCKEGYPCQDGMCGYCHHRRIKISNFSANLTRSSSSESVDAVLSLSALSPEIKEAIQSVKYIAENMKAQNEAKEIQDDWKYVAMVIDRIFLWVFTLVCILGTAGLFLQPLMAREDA
human α3β4 nicotinic acetylcholine receptor (α3β4 nAChR), sequence (P30926 22-498): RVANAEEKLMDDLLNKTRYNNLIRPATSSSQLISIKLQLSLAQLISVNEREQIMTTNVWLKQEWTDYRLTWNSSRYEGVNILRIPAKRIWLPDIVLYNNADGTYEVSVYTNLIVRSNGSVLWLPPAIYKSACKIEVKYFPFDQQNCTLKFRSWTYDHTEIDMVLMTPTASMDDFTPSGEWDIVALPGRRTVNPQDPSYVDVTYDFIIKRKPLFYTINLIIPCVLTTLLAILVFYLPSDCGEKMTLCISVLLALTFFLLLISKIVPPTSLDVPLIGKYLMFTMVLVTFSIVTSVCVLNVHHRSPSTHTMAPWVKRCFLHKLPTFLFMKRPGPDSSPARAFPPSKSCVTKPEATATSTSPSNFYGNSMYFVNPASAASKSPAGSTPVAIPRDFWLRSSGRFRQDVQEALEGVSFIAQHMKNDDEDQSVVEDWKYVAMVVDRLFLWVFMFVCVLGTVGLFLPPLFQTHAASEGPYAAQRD
human α3β4α5D nAChR (D398 variant of α5; α3β4α5N carries N398) (Homo sapiens, UniProt P30532+P30926+P32297, P30532:D398N), sequence (P32297 32-505): as the sequence (P32297 32-505) above
human α3β4α5D nAChR (D398 variant of α5; α3β4α5N carries N398) (Homo sapiens, UniProt P30532+P30926+P32297, P30532:D398N), sequence (P30926 22-498): as the sequence (P30926 22-498) above
human α3β4α5D nAChR (D398 variant of α5; α3β4α5N carries N398) (Homo sapiens, UniProt P30532+P30926+P32297, P30532:D398N), sequence (P30532 23-468 D398N): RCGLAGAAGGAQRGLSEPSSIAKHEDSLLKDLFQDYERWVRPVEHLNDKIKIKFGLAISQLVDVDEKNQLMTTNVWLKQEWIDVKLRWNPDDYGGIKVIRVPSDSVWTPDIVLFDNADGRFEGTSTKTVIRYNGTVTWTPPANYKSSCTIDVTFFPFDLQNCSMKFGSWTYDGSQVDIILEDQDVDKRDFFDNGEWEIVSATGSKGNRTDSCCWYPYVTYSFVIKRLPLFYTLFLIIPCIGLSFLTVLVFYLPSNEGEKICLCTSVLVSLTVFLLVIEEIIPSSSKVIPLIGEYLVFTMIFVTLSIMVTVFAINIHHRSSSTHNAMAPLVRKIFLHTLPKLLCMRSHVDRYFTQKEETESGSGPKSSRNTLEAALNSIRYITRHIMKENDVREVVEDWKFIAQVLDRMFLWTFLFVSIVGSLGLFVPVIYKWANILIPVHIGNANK

As a reminder, the IC50 is the concentration that inhibits the measured activity by half. On to `CCCCCCC(=O)OC1CC(C)(C)NC(C)(C)C1` [TMPH, 2,2,6,6-tetramethylpiperidin-4-yl heptanoate], for which the half-maximal inhibitory concentration (IC50) turned out to be 360 ± 20 nM in assay [1], 830 ± 100 nM in assay [2] and 450 ± 40 nM in assay [3].
In the case of `COc1cc2c3cc1Oc1cc(ccc1O)C[C@@H]1c4c(cc(OC)c(O)c4Oc4ccc(cc4)C[C@@H]3N(C)CC2)CC[N+]1(C)C` [D-Tubocurarine], the IC50 in assay [1] turned out to be 940 ± 210 nM; in assay [2] it was 1010 ± 240 nM; in assay [3], 640 ± 150 nM.
